Measured values reported in the supplement of paper PMC10307832.

Legend:
Assay in all cases: relative viability (nuclei count vs DMSO), 5 days (fraction); higher = more cells survive
Dabrafenib + OSI-027 = compound: CC(C)(C)c1nc(-c2cccc(NS(=O)(=O)c3c(F)cccc3F)c2F)c(-c2ccnc(N)n2)s1 [Dabrafenib] + COc1cccc2cc(-c3nc([C@H]4CC[C@H](C(=O)O)CC4)n4ncnc(N)c34)[nH]c12 [OSI-027] (partner 0.5 µM)
Method in brief: (§1)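 Five library-drug doses in √10 steps were combined with a fixed anchor-drug dose, or a single drug was given alone, by pin tool to lung cancer cell lines in 1536-well plates the day after seeding. Nuclei were stained and counted after 5 days. Relative viability is the nuclei count in treated wells over that in vehicle wells, taken as the median of duplicate plates.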

VX-702 + Lapatinib = compound: NC(=O)c1ccc(N(C(N)=O)c2c(F)cccc2F)nc1-c1ccc(F)cc1F [VX-702] + CS(=O)(=O)CCNCc1ccc(-c2ccc3ncnc(Nc4ccc(OCc5cccc(F)c5)c(Cl)c4)c3c2)o1 [Lapatinib] (partner 2 µM)
Method in brief: as §1

VX-702 + Dasatinib = compound: NC(=O)c1ccc(N(C(N)=O)c2c(F)cccc2F)nc1-c1ccc(F)cc1F [VX-702] + Cc1nc(Nc2ncc(C(=O)Nc3c(C)cccc3Cl)s2)cc(N2CCN(CCO)CC2)n1 [Dasatinib] (partner 0.075 µM)
Method in brief: as §1

Dabrafenib + Pictilisib = compound: CC(C)(C)c1nc(-c2cccc(NS(=O)(=O)c3c(F)cccc3F)c2F)c(-c2ccnc(N)n2)s1 [Dabrafenib] + CS(=O)(=O)N1CCN(Cc2cc3nc(-c4cccc5[nH]ncc45)nc(N4CCOCC4)c3s2)CC1 [Pictilisib] (partner 1 µM)
Method in brief: as §1

Row | Cell Line | relative viability (Dabrafenib + OSI-027; first compound 0.009487 µM) | relative viability (Dabrafenib + OSI-027; first compound 0.03 µM) | relative viability (Dabrafenib + OSI-027; first compound 0.09487 µM) | relative viability (Dabrafenib + OSI-027; first compound 0.3 µM) | relative viability (VX-702 + Lapatinib; first compound 0.02 µM) | relative viability (VX-702 + Lapatinib; first compound 0.2 µM) | relative viability (VX-702 + Lapatinib; first compound 0.6325 µM) | relative viability (VX-702 + Lapatinib; first compound 2 µM) | relative viability (VX-702 + Dasatinib; first compound 0.02 µM) | relative viability (VX-702 + Dasatinib; first compound 0.2 µM) | relative viability (VX-702 + Dasatinib; first compound 0.6325 µM) | relative viability (VX-702 + Dasatinib; first compound 2 µM) | relative viability (Dabrafenib + Pictilisib; first compound 0.009487 µM) | relative viability (Dabrafenib + Pictilisib; first compound 0.03 µM) | relative viability (Dabrafenib + Pictilisib; first compound 0.09487 µM) | relative viability (Dabrafenib + Pictilisib; first compound 0.3 µM) | relative viability (Dabrafenib + OSI-027; first compound 0.003 µM) | relative viability (Dabrafenib + Pictilisib; first compound 0.003 µM)
1 | NCI-H23 | 0.602 | 0.471 | 0.435 | 0.486 | 1.12 | 1.01 | 1.04 | 1.25 | 0.834 | 0.896 | 1.02 | 0.674 | 0.465 | 0.461 | 0.455 | 0.503 |  | 
2 | NCI-H322M | 0.545 | 0.503 | 0.515 | 0.448 | 0.58 | 0.616 | 0.583 | 0.674 | 0.241 | 0.265 | 0.247 | 0.249 | 0.539 |  | 0.542 | 0.489 |  | 
3 | NCI-H358 | 0.923 | 0.74 | 0.576 | 0.655 | 0.485 | 0.442 | 0.484 | 0.546 | 0.146 | 0.144 | 0.156 | 0.16 | 0.307 | 0.339 | 0.405 | 0.282 | 0.486 | 
4 | NCI-H441 | 0.465 | 0.565 | 0.438 | 0.352 |  |  |  |  | 0.633 | 0.565 | 0.627 | 0.697 | 0.54 | 0.406 | 0.374 | 0.401 |  | 
5 | NCI-H460 | 0.651 | 0.629 | 0.591 | 0.534 | 0.931 | 0.906 | 1.14 | 0.984 | 0.547 | 0.471 | 0.534 | 0.408 | 0.352 | 0.245 | 0.653 | 0.553 | 0.641 | 0.194
6 | NCI-H520 | 0.348 | 0.188 | 0.324 | 0.278 | 0.809 | 1.05 | 0.798 | 1.05 | 0.2 | 0.194 | 0.176 | 0.24 | 0.295 | 0.237 | 0.265 | 0.253 | 0.272 | 0.344
7 | NCI-H522 | 0.761 | 0.642 | 0.714 | 0.757 |  |  |  |  | 0.978 | 0.7 | 0.83 | 0.984 |  |  |  |  |  | 
8 | NCI-H596 | 0.976 | 0.63 | 0.658 | 0.886 | 1.09 | 1.01 | 1.13 | 1.1 | 0.672 | 0.579 | 0.56 | 0.57 | 0.364 | 0.194 | 0.397 | 0.423 |  | 0.372
9 | NCI-H1299 |  |  |  |  | 1.02 | 0.965 | 1.03 | 1.06 |  |  |  |  | 0.756 | 0.797 | 0.464 | 0.441 |  | 0.74
10 | NCI-H1623 | 0.46 | 0.441 | 0.425 | 0.489 |  |  |  |  | 0.515 | 0.453 | 0.422 | 0.5 |  |  |  |  |  | 
11 | NCI-H1648 | 0.249 | 0.298 | 0.244 | 0.209 |  |  |  |  |  |  |  |  |  |  |  |  | 0.225 | 
12 | NCI-H1703 |  |  |  |  | 1.2 | 0.931 | 0.647 | 1.21 |  |  |  |  | 0.255 | 0.225 | 0.249 | 0.226 |  | 0.257
13 | NCI-H2342 | 0.548 | 0.504 | 0.715 | 0.737 |  |  |  |  | 0.327 | 0.335 | 0.348 | 0.329 |  |  |  |  | 0.532 | 
